How the values were obtained:
[1] = system: adult Musca domestica; test: Musca domestica test; format: in vivo; details: after 2 days
Method: (§1) Musca domestica Test Solvent: dimethyl sulphoxide To prepare an appropriate active ingredient formulation, 10 mg of active ingredient are mixed with 0.5 ml of dimethyl sulphoxide and the concentrate is diluted with water to the desired concentration. Vessels containing a sponge treated with the active ingredient preparation of the desired concentration are populated with adult Musca domestica. After 2 days, the kill in % is determined. 100% means that all of the flies have been killed; 0% means that none of the flies have been killed.

[2] = system: Lucilia cuprina larvae; test: Lucilia cuprina test (LUCICU); format: in vivo; details: 48 h, treated horse meat, after 2 days, read-out: efficacy (kill)
Method: as §1, with “Lucilia cuprina” for “Musca domestica”, “Test (LUCICU)” for “Test”, “horse meat” for “a sponge”, “about 20 Lucilia cuprina larvae.” for “adult Musca domestica.”, “larvae” for “flies”

[3] = logP by HPLC on reversed-phase columns (C 18), EEC Directive 79/831 Annex V.A8; format: physicochemical; details: reversed-phase C18 HPLC column, pH 2.7, * LC-MS, acidic range pH 2.7, 0.1% aqueous formic acid and acetonitrile; read-out: log P
Text: [table] The calibration is effected with unbranched alkan-2-ones (having 3 to 16 carbon atoms) with known logP values (logP values determined on the basis of the retention times by linear interpolation between two successive alkanones).

[4] = system: adult engorged Boophilus microplus females of the SP-resistant Parkhurst strain; test: Boophilus microplus (dip); format: in vivo; details: Rhipicephalus microplus, 168 h, after 7 days, laying of fertile eggs, read-out: efficacy
Method: Boophilus microplus (dip)
Test animals: adult engorged Boophilus microplus females of the SP-resistant Parkhurst strain
Solvent: dimethyl sulphoxide
10 mg of active ingredient are dissolved in 0.5 ml of dimethyl sulphoxide. For the purpose of preparing a suitable formulation, the active ingredient solution is diluted with water to the concentration desired in each case. This active ingredient preparation is pipetted into tubes. 8-10 ticks are transferred into a further tube with holes. The tube is immersed into the active ingredient formulation, and all ticks are completely wetted. After the liquid has run out, the ticks are transferred onto filter discs in plastic dishes and stored in a climate-controlled room. The activity is assessed after 7 days by laying of fertile eggs. Eggs whose fertility is not outwardly visible are stored in glass tubes in a climate-controlled cabinet until the larvae hatch. Efficacy of 100% means that none of the ticks has laid any fertile eggs.

[5] = system: caterpillars of the armyworm (Spodoptera frugiperda); test: Spodoptera frugiperda test (SPODFR spray treatment); format: in vivo; details: Spodoptera frugiperda, foliar, 168 h, maize leaf discs, after 7 days, read-out: efficacy
How it was run: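 Maize leaf discs sprayed with the compound at the desired concentration, formulated in acetone/dimethylformamide with alkylaryl polyglycol ether emulsifier and diluted in water, then infested with armyworm caterpillars after drying. Efficacy read after 7 days as % caterpillars killed (100% = all dead, 0% = none).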

[6] = system: unfed adult fleas (Ctenocephalides felis); test: Ctenocephalides felis test (CTECFE); format: in vivo; details: Ctenocephalides felis, 48 h; 100 ppm in citrated cow's blood; after 2 days; read-out: efficacy (kill)
Method: Ctenocephalides felis Test ([…]) Solvent: 1 part by weight of dimethyl sulphoxide For the purpose of preparing an appropriate active ingredient formulation, 10 mg of active ingredient are mixed with 0.5 ml of dimethyl sulphoxide. A portion of the concentrate is diluted with citrated cow's blood and the desired concentration is established. About 20 unfed adult fleas (Ctenocephalides felis) are introduced into a chamber closed at the top and bottom with gauze. A metal cylinder, the bottom of which is closed with Parafilm, is placed onto the chamber. The cylinder contains the blood/active ingredient preparation, which can be imbibed by the fleas through the Parafilm membrane. After 2 days, the kill in % is determined. 100% means that all fleas have been killed; 0% means that none of the fleas have been killed.

[7] = system: green peach aphid (Myzus persicae); test: Myzus test (MYZUPE spray treatment); format: in vivo; details: Myzus persicae, 144 h, Chinese cabbage discs, after 6 days, read-out: efficacy
Method: Myzus Test (MYZUPE Spray Treatment) Solvent: 78 parts by weight of acetone • • 1.5 parts by weight of dimethylformamide Emulsifier: 0.5 part by weight of alkylaryl polyglycol ether To prepare an appropriate active ingredient preparation, 1 part by weight of active ingredient is mixed with the stated amounts of solvent and emulsifier, and the concentrate is diluted with emulsifier-containing water to the desired concentration. Discs of Chinese cabbage (Brassica pekinensis) infested by all stages of the green peach aphid (Myzus persicae) are sprayed with an active ingredient preparation of the desired concentration. After 6 days, the efficacy in % is determined. 100% means that all of the aphids have been destroyed; 0% means that none of the aphids have been destroyed.

[8] = system: Boophilus microplus; test: Boophilus microplus test (BOOPMI injection); format: in vivo; details: Rhipicephalus microplus, 168 h; 20 μg animal; injection into the abdomen; after 7 days, laying of fertile eggs; read-out: efficacy
How it was run: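 Adult female ticks injected in the abdomen with active ingredient in DMSO, then held in a climate-controlled room. Efficacy (%) scored after 7 days from laying of fertile eggs, 100% meaning no tick laid fertile eggs.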

[9] = system: red spider mite (Tetranychus urticae); test: Tetranychus test, OP-resistant (TETRUR spray treatment); format: in vivo; details: Tetranychus urticae, foliar, 144 h, 500 g/ha, bean leaf discs, after 6 days, read-out: efficacy
How it was run: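 Bean leaf discs (Phaseolus vulgaris) infested with all mite stages were sprayed with active ingredient diluted in emulsifier-containing water at the desired concentration. Mortality read after 6 days as % efficacy, where 100% = all mites killed and 0% = none killed.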

[10] = system: larvae of the mustard beetle (Phaedon cochleariae); test: Phaedon test (PHAECO spray treatment); format: in vivo; details: Phaedon cochleariae, 168 h, Chinese cabbage discs, after 7 days, read-out: efficacy
How it was run: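 Chinese cabbage leaf discs were sprayed with compound formulated in acetone/dimethylformamide with alkylaryl polyglycol ether emulsifier and diluted in emulsifier-containing water. After drying, discs were populated with mustard beetle larvae. Efficacy (% larvae killed; 100% = all dead) was scored after 7 days.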

[11] = system: Tick nymphs (Amblyomma hebraeum); test: Amblyomma hebraeum test (AMBYHE); format: in vivo; details: 100 ppm; immersed one minute; after 42 days
Method: Amblyomma hebraeum Test (AMBYHE) Solvent: dimethyl sulphoxide To prepare an appropriate active ingredient formulation, 10 mg of active ingredient are mixed with 0.5 ml of dimethyl sulphoxide and the concentrate is diluted with water to the desired concentration. Tick nymphs (Amblyomma hebraeum) are placed into perforated plastic beakers and immersed in the desired concentration for one minute. The ticks are transferred on filter paper into a Petri dish and stored in a climate-controlled cabinet. After 42 days, the kill in % is determined. 100% means that all of the ticks have been killed; 0% means that none of the ticks have been killed.

Row | Structure (SMILES) | efficacy (kill) ([1]; 20 ppm) [%] | pest or weed control at 100 ppm [2] [%] | chromatographic logP [3] | pest or weed control at 100 ppm [4] [%] | pest or weed control at 500 g/ha [5] [%] | pest or weed control at 100 ppm [6] [%] | pest or weed control at 500 g/ha [7] [%] | pest or weed control at 0.02 mg [8] [%] | pest or weed control at 500 g/ha [9] [%] | pest or weed control at 500 g/ha [10] [%] | efficacy (kill) [11] [%] | efficacy (kill) ([1]; 100 ppm) [%]
1 | COc1nccnc1-n1nc(C(F)(F)F)c(-c2cc(C(F)(F)F)cc(C(F)(F)F)c2)c1N [Ex. 14] | 90 | 100 | 4.2 | 90 | 100 | 100 | 100 | 100 | 100 | 100 | – | –
2 | COc1nccnc1-n1nc(C(F)(F)F)c(-c2cc(Cl)c3c(c2)OCO3)c1N [Ex. 48] | 90 | 100 | 3.14 | 100 | 100 | 100 | 90 | 100 | 100 | 100 | 100 | –
3 | COc1nccnc1-n1nc(C)c(-c2cc(Cl)c3c(c2)OCO3)c1N [Ex. 75] | – | 100 | 2.26 | 100 | 100 | 100 | 100 | 100 | 100 | 100 | – | 100
4 | CCc1nn(-c2nccnc2OC)c(N)c1-c1cc(Cl)c2c(c1)OCO2 [Ex. 76] | – | 100 | 2.57 | 100 | 83 | 90 | 80 | 100 | – | 100 | 100 | 80
